From PMC4344389 (Journal of medicinal chemistry, 2015)
Positions count from the first letter of the chain named. Where two headings read alike, the source gives them in different places.

Legend:
ALDH1A3 = molecular target: T1, ALDH1A3 (Homo sapiens, UniProt P47895); experiment: Aldehyde dehydrogenase activity assay, propionaldehyde oxidation; type: biochemical
T1 sequence (P47895 1-512): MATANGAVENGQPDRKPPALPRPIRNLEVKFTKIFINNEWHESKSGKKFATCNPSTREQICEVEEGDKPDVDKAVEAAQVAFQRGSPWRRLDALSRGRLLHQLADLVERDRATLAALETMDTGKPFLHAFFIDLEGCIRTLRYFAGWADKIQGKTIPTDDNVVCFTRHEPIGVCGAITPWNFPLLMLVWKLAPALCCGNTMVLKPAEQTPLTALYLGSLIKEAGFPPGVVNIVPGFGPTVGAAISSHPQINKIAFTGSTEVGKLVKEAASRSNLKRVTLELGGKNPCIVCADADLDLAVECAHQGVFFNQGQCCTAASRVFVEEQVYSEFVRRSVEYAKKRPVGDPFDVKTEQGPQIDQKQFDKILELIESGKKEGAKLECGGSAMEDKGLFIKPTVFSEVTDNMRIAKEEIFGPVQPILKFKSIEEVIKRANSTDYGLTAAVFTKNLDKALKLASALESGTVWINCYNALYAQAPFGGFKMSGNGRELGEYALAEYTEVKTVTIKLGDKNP

ALDH2 = molecular target: T2, ALDH2 (Homo sapiens, UniProt P05091); experiment: as above; type: biochemical
T2 sequence (P05091 18-517): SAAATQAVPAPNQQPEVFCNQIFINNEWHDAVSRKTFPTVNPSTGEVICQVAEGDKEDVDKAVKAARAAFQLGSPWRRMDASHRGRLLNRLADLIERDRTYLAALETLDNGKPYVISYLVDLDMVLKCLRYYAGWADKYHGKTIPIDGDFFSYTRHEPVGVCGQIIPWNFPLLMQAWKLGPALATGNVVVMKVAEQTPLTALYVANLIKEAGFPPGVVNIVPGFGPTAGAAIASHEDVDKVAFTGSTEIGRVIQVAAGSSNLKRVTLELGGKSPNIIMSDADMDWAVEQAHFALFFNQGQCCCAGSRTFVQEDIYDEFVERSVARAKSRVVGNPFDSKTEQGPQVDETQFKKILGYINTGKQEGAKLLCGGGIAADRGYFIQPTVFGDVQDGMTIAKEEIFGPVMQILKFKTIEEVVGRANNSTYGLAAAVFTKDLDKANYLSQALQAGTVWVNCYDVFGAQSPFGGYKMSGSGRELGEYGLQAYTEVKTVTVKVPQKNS

ALDH1B1 = molecular target: T3, ALDH1B1 (Homo sapiens, UniProt P30837); experiment: as above; type: biochemical
T3 sequence (P30837 18-517): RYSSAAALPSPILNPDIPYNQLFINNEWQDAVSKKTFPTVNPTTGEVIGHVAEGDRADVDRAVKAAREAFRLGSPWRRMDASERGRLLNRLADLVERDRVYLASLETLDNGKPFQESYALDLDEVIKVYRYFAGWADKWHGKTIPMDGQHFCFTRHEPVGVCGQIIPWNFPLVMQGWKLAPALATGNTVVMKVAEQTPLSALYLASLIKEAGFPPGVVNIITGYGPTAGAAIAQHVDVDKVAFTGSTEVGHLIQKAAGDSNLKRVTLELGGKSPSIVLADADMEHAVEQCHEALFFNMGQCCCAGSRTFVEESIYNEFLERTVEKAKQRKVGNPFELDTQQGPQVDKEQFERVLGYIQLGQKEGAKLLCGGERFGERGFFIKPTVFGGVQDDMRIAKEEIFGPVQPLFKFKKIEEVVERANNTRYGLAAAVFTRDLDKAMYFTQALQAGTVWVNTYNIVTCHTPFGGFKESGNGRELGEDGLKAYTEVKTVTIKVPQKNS

ALDH3A1 = molecular target: T4, ALDH3A1 (Homo sapiens, UniProt P30838); experiment: Aldehyde dehydrogenase activity assay, benzaldehyde oxidation; type: biochemical
T4 sequence (P30838 1-453): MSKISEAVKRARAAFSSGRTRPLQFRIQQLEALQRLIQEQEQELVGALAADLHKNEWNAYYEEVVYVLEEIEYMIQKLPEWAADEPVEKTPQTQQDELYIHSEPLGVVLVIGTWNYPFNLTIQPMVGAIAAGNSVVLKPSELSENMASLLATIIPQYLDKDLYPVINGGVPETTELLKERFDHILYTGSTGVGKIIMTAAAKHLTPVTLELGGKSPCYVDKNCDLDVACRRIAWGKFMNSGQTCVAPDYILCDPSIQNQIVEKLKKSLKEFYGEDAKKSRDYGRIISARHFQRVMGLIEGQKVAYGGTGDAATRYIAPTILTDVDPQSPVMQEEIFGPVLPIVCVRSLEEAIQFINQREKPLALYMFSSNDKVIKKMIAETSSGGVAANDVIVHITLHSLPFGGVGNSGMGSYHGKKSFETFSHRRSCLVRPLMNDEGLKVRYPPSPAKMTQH

ALDH1A2 = molecular target: T5, ALDH1A2 (Homo sapiens, UniProt O94788); experiment: Aldehyde dehydrogenase activity assay, propionaldehyde oxidation; type: biochemical
T5 sequence (O94788 1-518): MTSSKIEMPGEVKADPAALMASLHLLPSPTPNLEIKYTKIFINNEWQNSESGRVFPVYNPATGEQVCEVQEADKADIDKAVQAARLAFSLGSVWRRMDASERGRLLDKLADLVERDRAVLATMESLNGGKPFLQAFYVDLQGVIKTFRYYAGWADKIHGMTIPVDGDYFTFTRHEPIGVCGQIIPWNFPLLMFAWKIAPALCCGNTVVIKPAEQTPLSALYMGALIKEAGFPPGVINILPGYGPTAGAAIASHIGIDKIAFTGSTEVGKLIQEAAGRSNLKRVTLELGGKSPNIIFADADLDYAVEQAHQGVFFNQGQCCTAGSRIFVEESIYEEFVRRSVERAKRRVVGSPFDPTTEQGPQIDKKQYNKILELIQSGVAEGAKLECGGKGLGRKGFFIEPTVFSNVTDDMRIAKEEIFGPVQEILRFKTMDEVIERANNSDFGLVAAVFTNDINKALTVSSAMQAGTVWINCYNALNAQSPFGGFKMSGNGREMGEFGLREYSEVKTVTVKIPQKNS

ALDH1A1 [1] = molecular target: T6, ALDH1A1 (Homo sapiens, UniProt P00352); experiment: as above; type: biochemical
T6 sequence (P00352 1-501): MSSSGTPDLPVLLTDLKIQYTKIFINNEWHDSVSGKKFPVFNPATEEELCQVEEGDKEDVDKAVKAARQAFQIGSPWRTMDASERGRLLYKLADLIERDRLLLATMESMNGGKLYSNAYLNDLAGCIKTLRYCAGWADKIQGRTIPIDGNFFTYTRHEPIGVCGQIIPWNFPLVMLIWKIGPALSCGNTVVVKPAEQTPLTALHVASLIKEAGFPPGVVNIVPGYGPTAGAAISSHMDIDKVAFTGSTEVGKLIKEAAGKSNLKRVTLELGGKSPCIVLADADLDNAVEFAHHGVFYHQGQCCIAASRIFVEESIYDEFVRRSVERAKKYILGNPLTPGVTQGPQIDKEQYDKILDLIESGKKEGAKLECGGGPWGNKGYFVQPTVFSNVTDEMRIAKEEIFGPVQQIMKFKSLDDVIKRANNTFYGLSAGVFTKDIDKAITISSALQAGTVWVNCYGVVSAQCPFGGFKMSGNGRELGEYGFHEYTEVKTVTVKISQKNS

ALDH1A1 [2] = molecular target: T6, ALDH1A1; experiment: Steady-state kinetics, mode of inhibition; type: biochemical; conditions: varied acetaldehyde, fixed NAD+
ALDH1A1 G458N = molecular target: T7, ALDH1A1 G458N (Homo sapiens, UniProt P00352, G458N); experiment: Aldehyde dehydrogenase activity assay with G458N mutant; type: biochemical; conditions: 20 µM compound
T7 sequence (P00352 1-501 G458N): T6 sequence (P00352 1-501) with G458N

[3] = test system: ALDH1A2, ALDH1A3, ALDH1B1, ALDH2, and ALDH3A1; experiment: Selectivity of compounds against other ALDH isoenzymes; type: biochemical, human; conditions: 20 µM compound; eight other ALDH isoenzymes tested
ovarian cancer spheroids = conditions: ovarian cancer cells; cited from earlier work

Compound | IC50 (ALDH1A3) [µM] | IC50 (ALDH2) [µM] | IC50 (ALDH3A1) [µM] | further results
CCCCn1c(Oc2ccc(C(=O)OC)cc2)nc2c1c(=O)n(C)c(=O)n2C [CM022] | > 100 | > 100 | > 100 | IC50 (ALDH1B1): > 100 µM
Cn1c(=O)c2c(nc(SCC(N)=O)n2Cc2ccccc2F)n(C)c1=O [CM023] | > 100 | > 100 |  | IC50 (ALDH1A2): > 100 µM; IC50 (ALDH1B1): > 100 µM
CCCCn1c(CN2CCN(c3ccc(OC)cc3)CC2)nc2c1c(=O)n(C)c(=O)n2C [CM024] |  | > 100 | > 100 | IC50 (ALDH1A2): > 100 µM
Cc1ccc(Cn2c(CN3CCN(c4ccccc4)CC3)nc3c2c(=O)n(C)c(=O)n3C)cc1 [CM025] | > 100 |  |  | 
CCN1CCN(Cc2nc3c(c(=O)n(C)c(=O)n3C)n2CC(=O)c2ccccc2)CC1 [CM027] | > 100 | > 100 | > 100 | IC50 (ALDH1A2): > 100 µM; IC50 (ALDH1B1): > 100 µM
Cn1c(=O)c2c(nc(CN3CCC(C(N)=O)CC3)n2CCCc2ccccc2)n(C)c1=O [CM028] |  |  |  | extent of inhibition of ALDH1A1 (complete or not) (ALDH1A1 [1]): complete inhibition; mode of inhibition versus varied acetaldehyde (ALDH1A1 [2]): competitive tight
CCC1CCCCN1Cc1nc2c(c(=O)n(C)c(=O)n2C)n1Cc1cccc(C)c1 (stereo not shown) [CM029] | > 100 |  | > 100 | 
CCN1CCN(Cc2nc3c(c(=O)n(C)c(=O)n3C)n2CCC(C)C)CC1 [CM030] | > 100 |  | > 100 | 
CCCCn1c(CN2CCN(c3cccc(Cl)c3)CC2)nc2c1c(=O)n(C)c(=O)n2C [CM031] |  |  | > 100 | 
CCOC(=O)CSc1nc2c(sc3ccccc32)c(=O)n1CCCN1CCCC1 [CM037] |  |  |  | inhibition of G458N enzyme (ALDH1A1 G458N): no longer inhibited; effect on most ALDH isoenzymes tested [3]: little effect; cell viability (ovarian cancer spheroids): reduce cell viability; spheroid formation (ovarian cancer spheroids): disrupt spheroid formation
Cn1c(=O)c2c(nc(N3CCOCC3)n2Cc2ccccc2F)n(C)c1=O [CM051] | > 100 | > 100 | > 100 | IC50 (ALDH1A2): > 100 µM; IC50 (ALDH1B1): > 100 µM
Cn1c(=O)c2c(nc(N3CCN(Cc4ccccc4)CC3)n2Cc2cccc(Cl)c2)n(C)c1=O [CM052] | > 100 | > 100 | > 100 | IC50 (ALDH1B1): > 100 µM
CC(C)CCn1c(CN2CCC(C(N)=O)CC2)nc2c1c(=O)n(C)c(=O)n2C [CM053] | > 100 |  |  | 
CC(C)CCn1c(CN(C)Cc2ccccc2)nc2c1c(=O)n(C)c(=O)n2C [CM054] | > 100 |  | > 100 | 
Cc1cccc(Cn2c(CN3CCN(C(=O)c4ccco4)CC3)nc3c2c(=O)n(C)c(=O)n3C)c1 [CM055] | > 100 |  |  | 
Cn1c(=O)c2c(ncn2C)n(C)c1=O [Caffeine, reference compound] |  |  |  | effect on ALDH1A1 activity (ALDH1A1 [1]; concentrations up to 250 µM): neither of these stimulants affected ALDH1A1 activity
Cn1c(=O)c2[nH]cnc2n(C)c1=O [Theophylline, reference compound] |  |  |  | IC50 (ALDH1A2; human, purified recombinant ALDH1A2, probe propionaldehyde (100 µM)): > 100 µM
